Laboratory results: ChEMBL document CHEMBL3271999, “Antimycotic imidazoles. 2. Synthesis and antimycotic properties of 1-[2-(arylalkyl)-2-phenylethyl]-1H-imidazoles” (1977)

Experiments:
Assay type in all cases: functional
Candida albicans = experiment: Antifungal activity against Candida albicans assessed as lowest dose level for total inhibition of fungal growth
Mucor = experiment: Antifungal activity against Mucor species assessed as lowest dose level for total inhibition of fungal growth
Aspergillus fumigatus = experiment: Antifungal activity against Aspergillus fumigatus assessed as lowest dose level for total inhibition of fungal growth
Sporothrix schenckii = experiment: Antifungal activity against Sporothrix schenckii assessed as lowest dose level for total inhibition of fungal growth
Saprolegnia = experiment: Antifungal activity against Saprolegnia species assessed as lowest dose level for total inhibition of fungal growth
Phialophora verrucosa = experiment: Antifungal activity against Phialophora verrucosa assessed as lowest dose level for total inhibition of fungal growth
[1] = test system: Erysipelothrix rhusiopathiae; experiment: Antibacterial activity against Erysipelothrix insidiosa assessed as lowest dose level for total inhibition of bacterial growth
[2] = test system: Staphylococcus haemolyticus; experiment: Antibacterial activity against Staphylococcus haemolyticus assessed as lowest dose level for total inhibition of bacterial growth
Streptococcus pyogenes = experiment: Antibacterial activity against Streptococcus pyogenes assessed as lowest dose level for total inhibition of bacterial growth
Microsporum canis = experiment: Antifungal activity against Microsporum canis assessed as lowest dose level for total inhibition of fungal growth
[3] = test system: Trichophyton mentagrophytes; experiment: Antifungal activity against Trichophyton mentagrophytes assessed as lowest dose level for total inhibition of fungal growth
Trichophyton rubrum = experiment: Antifungal activity against Trichophyton rubrum assessed as lowest dose level for total inhibition of fungal growth
Cryptococcus neoformans = experiment: Antifungal activity against Cryptococcus neoformans assessed as lowest dose level for total inhibition of fungal growth
Candida tropicalis = experiment: Antifungal activity against Candida tropicalis assessed as lowest dose level for total inhibition of fungal growth

Compound | Activity (Candida albicans) [µg/mL] | Activity (Mucor) [µg/mL] | Activity (Aspergillus fumigatus) [µg/mL] | Activity (Sporothrix schenckii) [µg/mL] | Activity (Saprolegnia) [µg/mL] | Activity (Phialophora verrucosa) [µg/mL] | Activity [1] [µg/mL] | Activity [2] [µg/mL] | Activity (Streptococcus pyogenes) [µg/mL] | Activity (Microsporum canis) [µg/mL] | Activity [3] [µg/mL] | Activity (Trichophyton rubrum) [µg/mL] | Activity (Cryptococcus neoformans) [µg/mL] | Activity (Candida tropicalis) [µg/mL]
Clc1ccc(C(Cc2ccccc2Cl)Cn2ccnc2)c(Cl)c1.O=[N+]([O-])O (stereo not drawn) | 100 | 100 | 100 | <1 | 10 | 10 | <1 | 10 | <1 | 10 | <1 | <1 | <1 | <1
Clc1ccc(CC(Cn2ccnc2)c2ccccc2Br)cc1.O=[N+]([O-])O (stereo not drawn) | 10 | 100 | 100 | 10 | 100 | 100 | <1 | 10 | 1 | 100 | <1 | <1 | <1 | >100
Cc1ccccc1C(Cc1ccc(Cl)cc1Cl)Cn1ccnc1.O=[N+]([O-])O (stereo not drawn) | 100 | 10 | 10 | 10 | 100 | 100 | 1 | 10 | 10 | 10 | <1 | <1 | 10 | 100
Clc1ccc(C(CCc2ccc(Br)cc2)Cn2ccnc2)c(Cl)c1.O=[N+]([O-])O (stereo not drawn) | >100 | >100 | 100 | 10 | 10 | 100 | <1 | 10 | <1 | 10 | <1 | <1 | <1 | 10
Clc1ccc(COC(Cn2ccnc2)c2ccc(Cl)cc2Cl)c(Cl)c1 (stereo not drawn) [MICONAZOLE] | 10 | >100 | 10 | 1 | 10 | 100 | <1 | 10 | <1 | 1 | <1 | <1 | 1 | 100
Cc1ccccc1C(Cc1ccc(Cl)cc1)Cn1ccnc1.O=[N+]([O-])O (stereo not drawn) | >100 | 100 | 100 | 100 | 100 | 100 | 1 | 10 | <1 | 10 | <1 | 10 | 10 | >100
Clc1ccc(C(CCc2ccccc2Cl)Cn2ccnc2)c(Cl)c1.O=[N+]([O-])O (stereo not drawn) | 10 | 100 | 100 | <1 | 100 | 100 | <1 | 1 | 1 | 10 | <1 | <1 | <1 | >100
Clc1ccc(C(Cc2c(Cl)cccc2Cl)Cn2ccnc2)cc1.O=[N+]([O-])O (stereo not drawn) | >100 | 10 | 100 | 10 | 100 | 100 | <1 | 10 | <1 | 10 | <1 | 10 | <1 | >100
Clc1ccc(C(Cc2ccc(Cl)cc2Cl)Cn2ccnc2)cc1.O=[N+]([O-])O (stereo not drawn) | 100 | 100 | 100 | 10 | 100 | 100 | <1 | 10 | 1 | 10 | <1 | <1 | <1 | 100
Cc1ccccc1C(Cc1c(Cl)cccc1Cl)Cn1ccnc1.O=[N+]([O-])O (stereo not drawn) | >100 | 100 | 100 | 100 | 100 | 100 | <1 | 10 | <1 | 10 | <1 | <1 | 100 | >100
Clc1ccc(C(Cc2c(Cl)cccc2Cl)Cn2ccnc2)c(Cl)c1.O=[N+]([O-])O (stereo not drawn) | 100 | 100 | 100 | <1 | 100 | 100 | 1 | 100 | 1 | 10 | <1 | <1 | <1 | 100
Clc1ccccc1C(Cc1c(Cl)cccc1Cl)Cn1ccnc1.O=[N+]([O-])O (stereo not drawn) | 100 | >100 | 10 | 10 | 100 | 100 | 1 | 1 | <1 | <1 | <1 | <1 | 10 | >100
